Test results taken from US20260184663A1, “INDENE COMPOUNDS, PHARMACEUTICAL COMPOSITIONS THEREOF, AND THEIR THERAPEUTIC APPLICATIONS” (NucMito Pharmaceuticals co. Ltd., priority 2022, published 2026).

Columns and labels:
Type in all cases: cell-based
[1] = tested on: HepG2 (liver cancer); assay: Antiproliferative activity (CCK-8 cell viability), HepG2; details: Homo sapiens, 72 h, read-out: Antiproliferative activity in cancerous cells, HepG2 (inhibition of cell growth); for inhibition at 3.3 µM: Compound concentration: 3.3 μM; for inhibition at 10 µM: Compound concentration: 10 μM
Summary of the method: (§1)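 Growth inhibition graded in bands from percent viability against DMSO vehicle, read as CCK-8 absorbance at 450 nm. Compound tested at 3.3, 10 or 30 μM for 72 h, 37 °C; media contained 10% FBS: DMEM for HepG2/SW480, MEM for HeLa, F-12K for A549.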

[2] = tested on: A431 (epidermoid carcinoma); assay: Antiproliferative activity (CCK-8 cell viability), A431; details: Homo sapiens, 72 h; for inhibition at 3.3 µM: A-431, Compound concentration: 3.3 μM; for inhibition at 3.3 µM / inhibition at 10 µM: read-out: Antiproliferative activity in cancerous cells, A431 (inhibition of cell growth); for inhibition at 10 µM: A-431, Compound concentration: 10 μM
Summary of the method: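 This growth inhibition assay used A431 cells maintained in Dulbecco's modified Eagle's medium plus 10% fetal bovine serum. Cells were seeded in 96-well plates, treated with compound for 72 h at 37° C., and then given 10 μL CCK-8 solution. After a further 4 h, absorbance was read at 450 nm.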

[3] = tested on: A549 (lung adenocarcinoma); assay: Antiproliferative activity (CCK-8 cell viability), A549; details: Homo sapiens, 72 h; for inhibition at 3.3 µM: Compound concentration: 3.3 μM; for inhibition at 3.3 µM / inhibition at 10 µM: read-out: Antiproliferative activity in cancerous cells, A549 (inhibition of cell growth); for inhibition at 10 µM: Compound concentration: 10 μM; for inhibition at 30 µM: Compound concentration: 30 μM, read-out: Antiproliferative activity in cancerous cells, A549
Summary of the method: as §1

[4] = tested on: B16F10 (malignant melanoma); assay: Antiproliferative activity (CCK-8 cell viability), B16F10; details: Mus musculus, 72 h, read-out: Antiproliferative activity in cancerous cells, B16F10 (inhibition of cell growth); for inhibition at 3.3 µM: B16-F10, Compound concentration: 3.3 μM; for inhibition at 10 µM: B16-F10, Compound concentration: 10 μM
Summary of the method: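 Cell growth inhibition was measured in B16F10 malignant melanoma cells with a Cell Counting Kit-8 viability assay. Cells were maintained in DMEM plus 10% fetal bovine serum, seeded at 2,000-5,000 cells/well in 96-well plates, and treated for 72 h at 37° C. Viability was expressed relative to DMSO-treated vehicle control wells.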

[5] = tested on: SW480 (colon cancer); assay: Antiproliferative activity (CCK-8 cell viability), SW480; details: Homo sapiens, 72 h; for inhibition at 3.3 µM: Compound concentration: 3.3 μM; for inhibition at 3.3 µM / inhibition at 10 µM: read-out: Antiproliferative activity in cancerous cells, SW480 (inhibition of cell growth); for inhibition at 10 µM: Compound concentration: 10 μM
Summary of the method: as §1

[6] = tested on: HeLa (cervical cancer); assay: Antiproliferative activity (CCK-8 cell viability), HeLa; details: Homo sapiens, 72 h, read-out: Antiproliferative activity in cancerous cells, HELA (inhibition of cell growth); for inhibition at 3.3 µM: Compound concentration: 3.3 μM; for inhibition at 10 µM: Compound concentration: 10 μM
Summary of the method: as §1

[7] = tested on: MDA-MB-231 (breast cancer); assay: Antiproliferative activity (CCK-8 cell viability), MDA-MB-231; details: Homo sapiens, 72 h; for inhibition at 3.3 µM: Compound concentration: 3.3 μM; for inhibition at 3.3 µM / inhibition at 10 µM: read-out: Antiproliferative activity in cancerous cells, MDA-MB-231 (inhibition of cell growth); for inhibition at 10 µM: Compound concentration: 10 μM; for inhibition at 30 µM: Compound concentration: 30 μM, read-out: Antiproliferative activity in cancerous cells, MDA-MB-231
Summary of the method: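 Growth inhibition of human MDA-MB-231 breast cancer cells was assessed with a Cell Counting Kit-8. Cells cultured in DMEM plus 10% FBS were seeded at 2,000-5,000 cells/well, treated after attachment, and kept 72 h at 37° C. CCK-8 solution (10 μL) was added for 4 h, and absorbance at 450 nm was compared with DMSO-treated controls.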

Row | Compound | inhibition at 3.3 µM [1] [%] | inhibition at 10 µM [1] [%] | inhibition at 3.3 µM [2] [%] | inhibition at 10 µM [2] [%] | inhibition at 3.3 µM [3] [%] | inhibition at 10 µM [3] [%] | inhibition at 3.3 µM [4] [%] | inhibition at 10 µM [4] [%] | inhibition at 3.3 µM [5] [%] | inhibition at 10 µM [5] [%] | inhibition at 3.3 µM [6] [%] | inhibition at 10 µM [6] [%] | inhibition at 3.3 µM [7] [%] | inhibition at 10 µM [7] [%] | inhibition at 30 µM ([2]; A-431, Compound concentration: 30 μM, read-out: Antiproliferative activity in cancerous cells, A431) [%] | inhibition at 30 µM [3] [%] | inhibition at 30 µM ([5]; Compound concentration: 30 μM, read-out: Antiproliferative activity in cancerous cells, SW480) [%] | inhibition at 30 µM [7] [%]
1 | CCc1ccc2c(c1)C(CC(=O)O)=C(C)/C2=C/c1ccc(COc2ccc(F)c(F)c2)cc1 [B55, (Z)-2-(1-(4-((3,4-Difluorophenoxy)methyl)benzylidene)-5-ethyl-2-methyl-1H-inden-3-yl)acetic acid] | < 30 | ≥ 50 | 30 to 50 | ≥ 50 | 30 to 50 | ≥ 50 | ≥ 50 | ≥ 50 | < 30 | ≥ 50 | < 30 | ≥ 50 | ≥ 50 | ≥ 50 | – | – | – | –
2 | CCc1ccc2c(c1)C(CC(=O)O)=C(C)/C2=C/c1ccc(COc2ccc(Cl)cc2)cc1 [B56, (Z)-2-(1-(4-((4-Chlorophenoxy)methyl)benzylidene)-5-ethyl-2-methyl-1H-inden-3-yl)acetic acid] | ≥ 50 | ≥ 50 | ≥ 50 | ≥ 50 | 30 to 50 | ≥ 50 | 30 to 50 | ≥ 50 | 30 to 50 | ≥ 50 | ≥ 50 | ≥ 50 | < 30 | 30 to 50 | – | – | – | –
3 | CC1=C(CC(=O)O)c2cc(Cl)ccc2/C1=C\c1ccc(COc2ccc(F)cc2)cc1 [B57, (Z)-2-(5-Chloro-1-(4-((4-fluorophenoxy)methyl)benzylidene)-2-methyl-1H-inden-3-yl)acetic acid] | < 30 | 30 to 50 | 30 to 50 | 30 to 50 | < 30 | < 30 | ≥ 50 | 30 to 50 | < 30 | < 30 | < 30 | ≥ 50 | < 30 | < 30 | 30 to 50 | < 30 | < 30 | < 30
4 | CC1=C(CC(=O)O)c2cc(Cl)ccc2/C1=C\c1ccc(COc2ccc(C(F)(F)F)cc2)cc1 [B58, (Z)-2-(5-Chloro-2-methyl-1-(4-((4-(trifluoromethyl)phenoxy)methyl)-benzylidene)-1H-inden-3-yl)acetic acid] | < 30 | ≥ 50 | 30 to 50 | 30 to 50 | < 30 | 30 to 50 | ≥ 50 | ≥ 50 | < 30 | 30 to 50 | 30 to 50 | ≥ 50 | < 30 | < 30 | – | – | – | 30 to 50
5 | CC1=C(CC(=O)O)c2cc(C)ccc2/C1=C\c1ccc(COc2ccc(C(F)(F)F)cc2)cc1 [B59, (Z)-2-(2,5-Dimethyl-1-(4-((4-(trifluoromethyl)phenoxy)methyl)benzylidene)-1H-inden-3-yl)acetic acid] | < 30 | < 30 | ≥ 50 | ≥ 50 | < 30 | 30 to 50 | 30 to 50 | ≥ 50 | < 30 | 30 to 50 | 30 to 50 | 30 to 50 | < 30 | < 30 | – | 30 to 50 | – | < 30
